Data: US9463188B2, “Osteopontin production inhibitor containing dictyopyrone derivative or dihydrodictyopyrone derivative as active ingredient” (TOHOKU UNIVERSITY, priority 2013, dated 2016)

Tested on: A549/OPNluc cells
Assay: WST assay (cell growth inhibition)
Type: cell-based
Details: Homo sapiens, 48±4 hours, WST-1, read-out: IC50 (concentration for 50% inhibition of cell growth)
Description: A reporter vector pOPN1-luc obtained by inserting a human OPN promoter sequence (−765 to 23) into the multiple cloning site of pGL-3 basic vector (Promega) expresses luciferase when transfected into animal cells. This pOPN1-luc was transfected into a human non-small cell lung cancer-derived cell line A549 together with pPUR (Clontech) that expresses a puromycin resistance gene (puromycin-N-acetyl-transferase gene), and cells that could grow in a puromycin-supplemented medium and expressed luciferase were selected. The selected cells were named A549/OPNluc cells and used for observation of luciferase expression inhibitory effect under control of OPN promoter, as described later.
A test compound was added to a culture liquid containing A549/OPNluc cells to observe its influence on the amount of luciferase expressed in the cells. Here, it can be considered that when the test compound has cytotoxity or cell growth-suppressing effect, the total expression level of luciferase is reduced due to a reduction in the number of living cells that depends on the concentration of the test compound, and therefore the luciferase expression inhibitory effect of the test compound under control of OPN promoter cannot be properly evaluated. For this reason, WST assay for quantification of cell proliferation ability or cell viability by colorimetric measurement was first performed to determine IC50 (concentration for 50% inhibition of cell growth) of the test compound for cell growth. Then, luciferase activity measurement was performed to determine EC50 (concentration for 50% inhibition of luciferase expression) of the test compound for luciferase expression under control of OPN promoter.
A549/OPNluc cells were suspended in DMEM medium containing 10% fetal calf serum (FCS) and 1% penicillin/streptomycin (P/S) at 3×10^4 cells/mL to obtain a cell suspension, and 100 μL of the cell suspension was dispensed into each well of a 96-well plate. In order to perform the assay in triplicate, 3 wells were prepared for a control group and 3 wells were prepared for each test compound-treated group at each concentration. After the dispensing, the 96-well plate was incubated in a CO2 incubator (at 37° C. and 5% CO2) for 24±4 hours.
The test compound was dissolved in dimethylsulfoxide (DMSO) to obtain a 50 mmol/L solution, and the test compound solution was stored at −80° C. The test compound solution was diluted with DMSO in 2-fold dilution series (usually, in the range of 0.31 mmol/L to 20 mmol/L) to prepare test compound solutions whose concentration varied by two fold for WST assay.
Only DMSO (control) or the diluted test compound (sample) solution was dispensed in an amount of 0.5 μL into each well containing the cell suspension (200-fold dilution). The solution in each well was mixed with a vortex mixer, and then the 96-well plate was incubated in a CO2 incubator (at 37° C. and 5% CO2) for 48±4 hours. Then, 10 μL of Premix WST-1 Reagent (TAKARA BIO INC.) was added to each well. The solution in each well was mixed with a vortex mixer, and then the 96-well plate was incubated at 37° C. and 5% CO2. After 60 minutes or 120 minutes, absorbance values (450 nm) were measured using a microplate reader (Bio-Rad; Benchmark or Thermo Scientific; Varioskan Flash).
The absorbance values of the control wells and the absorbance values of the sample wells at each concentration were input into an Excel file to determine the percentages of absorbance values of the sample wells at each concentration with respect to the average of absorbance values of the control wells. From the determined values, a fitted curve was determined by the method of least squares to calculate IC50.

Q: For `CCCCCCCCCCCC(=O)[C@H]1C(=O)O[C@@H](C)C[C@@H]1C` [Chemical formula 3], which IC50 is on record?
A: 56.2 µM
